These results are taken from patent publication US20060111286A1, “Method of modulating endothelial cell activity” (priority 2002, published 2006).

“Also recorded” adds a separate entry of the source. Read-outs that look alike come from different tables or passages of the source.

Assay [1] deals with human umbilical vein endothelial cells. Put plainly: Endothelial permeability assay: passage of FITC-conjugated dextran through thrombin-treated endothelial cell monolayers in transwells. As to conditions: then thrombin 0.2 U/ml. The assay is classed as cell-based. The method, then: Cells were used at passage 4 or less. For infection with adenoviral constructs, cells were grown to 80% confluence and exposed to 2.5×10^6 plaque forming units/25 cm^2 culture area for 2 hours in M119 medium with 2% FCS and a further 22 hours with 20% FCS.
Endothelial cells (10^5) were cultured in transwells (3 μ-pore size, Corning Costar Corp, Cambridge, Mass., USA) for 24 hours in complete medium and then in 2% FCS medium for a further 24 hours. Cells were pre-treated with either bisindolylmaleimide I (10 nM or 6 μM), Calphostin C (100 nM), chelerythrine chloride (1 μM), H-89 (50 nM) or angiopoietin-1 (0.1 μg/ml), as required. FITC-conjugated dextran (0.2 μg) was added to the upper chamber of all wells and cells were then treated with thrombin (0.2 U/ml). […] Adenovirus infected ECs were plated on to transwells 24 hours after the above infection procedure and treated in the same manner as uninfected cells.

Assay [2] concerns protein kinase Cζ. The experiment in a line: Immunofluorescence staining of protein kinase Cζ localisation in endothelial cell monolayers. As to conditions: for effect on thrombin stimulated protein kinase Cζ relocalisation to the membrane: then thrombin 0.2 U/ml. The format is cell-based, human. The method, then: (§1) Human umbilical vein endothelial cells were grown in M119 medium with 20% foetal calf serum (FCS) as described (Litwin, M., Clark, K., Noack, L., Furze, J., Berndt, M., Albelda, S., Vadas, M., Gamble, J. (1997) J Cell Biol. 139:219-28). Cells were used at passage 4 or less. For infection with adenoviral constructs, cells were grown to 80% confluence and exposed to 2.5×10^6 plaque forming units/25 cm^2 culture area for 2 hours in M119 medium with 2% FCS and a further 22 hours with 20% FCS.
(§2) 6×10^4 endothelial cells were cultured in fibronectin coated glass LabTek chamber slides (Nalge Nunc International, Naperville, Ill., USA) and incubated for 3 days prior to staining. Cells were then treated with angiopoietin-1, thrombin and/or bisindolylmaleimnide I, as required. Cells were washed once in PBS, fixed in 4% paraformnaldehyde/PBS for 5 minutes, permeabilized with acetone for 5 min at −20° C. and then washed twice with PBS. The fixed cells were incubated with rabbit anti-protein kinase Cζ immunoaffmity purified IgG or anti-protein kinase Cλ (BD Transduction Laboratories, San Diego, Calif., USA) overnight at 4° C. followed by FITC-conjugated anti-rabbit antibody (Rockland, Gilbertsville Pa., USA). Coverslips were mounted using fluorescent microscopy mounting medium (Dako Corp., Carpinteria, Calif., USA). Cells were imaged by epifluorescent microscopy on an Olympus BX-51 microscope (Olympus, Hamburg, Germany) equipped with excitation filters for fluorescein (494 nm) acquired to a Photometrics Cool Snap FX charge-coupled device camera (Roper Scientific GmbH, Germany). Images were adjusted for brightness and contrast using V^++ software (Digital Optics Ltd., Aucldand, New Zealand).

Assay [3] relates to protein kinase Cζ. The experiment in a line: Immunoblotting for phosphorylated Thr410 of over-expressed protein kinase Cζ in endothelial cells. The format is cell-based, human. As to conditions: for effect on thrombin stimulated protein kinase Cζ phosphorylation (Thr410): then thrombin 0.2 U/ml, FLAG-protein kinase Cζ over-expressing cells. The method, then:
as §1
Endothelial cells were plated into fibronectin coated flasks before infection as above. Following infection, cells were serum depleted (0.2% FCS) overnight. Cells were then treated with angiopoietin-1, thrombin and/or bisindolylmaleimide I, as required, lysed in ice-cold lysis buffer (50 mM Tris.HCl, pH 7.4, with 1% NP-40, 150 mM NaCl, 2 mM EGTA, 1 mM NaPO4, 100 mM NaF, 10 mM sodium pyrophosphate and protease inhibitor cocktail). Protein concentrations were assayed using Bradford Reagent (BioRad, Hercules, Calif., USA). Equal amounts of protein were loaded onto 10% acrylamide gels, separated by SDS-PAGE, transferred to PVDF membrane, blocked with 5% skim milk powder and 0.1% Triton-X100 in phosphate buffered saline, and probed with a polyclonal rabbit antibody directed against phosphorylated Thr410 of the activation loop of protein kinase Cζ (Chou, M. M., Hou, W., Johnson, J., Graham, L. K., Lee, M. H., Chen, C. S., Newton, A. C., Schaffhausen, B. S., Toker, A. (1998) Curr Biol. 8:1069-77). This antibody was a generous gift from Dr Alex Toker. After washing, membranes were incubated with anti-rabbit secondary antibody and reactive bands were detected by chemiluminescence (ECL Western Blotting Detection Reagents, Amersham Pharmacia Biotech, Little Chalfont, England, UK). Membranes were stripped using stripping buffer (Re-Blot Plus Western Blot Recycling Kit, Chemicon, Temecula Calif., USA) and re-probed with rabbit anti-protein kinase Cζ immunoaffinity purified IgG (Upstate Biotechnology, Lake Placid N.Y., USA).
A general note: Immunoblotting shows a protein as a band on a membrane.

Assay [4] deals with protein kinase C isoforms. As to conditions: cited from earlier work.
The test system of a further assay is protein kinase Cλ. The experiment in a line: Immunofluorescence staining of protein kinase Cλ localisation in endothelial cell monolayers. Conditions: thrombin 0.2 U/ml alone, confluent monolayers. The assay is classed as cell-based, human. As for the experimental part: as §1
as §2, with “Cells were imaged by epifluorescent microscopy on an Olympus BX-51 microscope (Olympus, Hamburg, Germany) equipped with excitation filters for fluorescein (494 nm) acquired to a Photometrics Cool Snap FX charge-coupled device camera (Roper Scientific GmbH, Germany). Images were adjusted for brightness and contrast using V^++ software (Digital Optics Ltd., Aucldand, New Zealand).” left out

`O=S(=O)(NCCNC/C=C/c1ccc(Br)cc1)c1cccc2cnccc12` [H-89]: the “effect on thrombin stimulated endothelial cell permeability increase” value in assay [1] (50 nM, pre-treated 15 mins) is on record as “has no effect on thrombin induced permeability changes; also recorded: has no effect on thrombin-stimulated permeability increases”.
As for `CN(C)CCCn1cc(C2=C(c3c[nH]c4ccccc34)C(=O)NC2=O)c2ccccc21.Cl` [bisindolylmaleimide I, Bisindolylmaleimide I hydrochloride], the “effect on thrombin stimulated endothelial cell permeability increase” value is on record as “had no effect on the thrombin-induced increases of endothelial cell permeability” in assay [1] (100 nM, pre-treated 15 mins); “inhibited thrombin stimulation of endothelial cell permeability” in assay [1] (6 μM, pre-treated 15 mins, hydrochloride); “blocks thrombin-stimulated permeability increases” in assay [1] (6 μM, pre-treated 15 mins, listed as Bisindolylmaleimide I, hydrochloride). Further, the “effect on thrombin stimulated protein kinase Cζ relocalisation to the membrane” value in the assay with protein kinase Cζ [2] (6 μM for 15 minutes) is reported as “dramatically decreased”. Moreover, the “effect on thrombin stimulated protein kinase Cζ phosphorylation (Thr410)” value in the assay on protein kinase Cζ [3] (6 μM for 15 minutes) was “inhibited thrombin stimulated protein kinase Cζ phosphorylation”. The “protein kinase C isoforms inhibited” value was “inhibits classical and novel protein kinase C isoforms” in assay [4] (100 nM); “inhibits all protein cinase C isoforms” in assay [4] (6 μM).
For Calphostin C, the “effect on thrombin stimulated endothelial cell permeability increase” value in assay [1] (100 nM, pre-treated 15 mins) was “had no effect on the thrombin-induced increases of endothelial cell permeability; also recorded: does not block thrombin-stimulated permeability increases”.
Turning to Thrombin, the “protein kinase Cζ localisation” value with protein kinase Cζ [2] (thrombin 0.2 U/ml alone, confluent monolayers) is recorded as “localized to the cell membrane”. The “phosphorylation of over-expressed protein kinase Cζ (Thr410)” value in the assay on protein kinase Cζ [3] (thrombin 0.2 U/ml for 15 minutes alone) is “increased the phosphorylation of over-expressed protein kinase Cζ”. Also, the “protein kinase Cλ localisation” value in the assay with protein kinase Cλ is on record as “remained evenly distributed”.

B1: Angiopoietin-1 (protein, UniProt Q15389 16-498, looked up)
Angiopoietin-1: HIGCSNQRRSPENSGRRYNRIQHGQCAYTFILPEHDGNCRESTTDQYNTNALQRDAPHVEPDFSSQKLQHLEHVMENYTQWLQKLENYIVENMKSEMAQIQQNAVQNHTATMLEIGTSLLSQTAEQTRKLTDVETQVLNQTSRLEIQLLENSLSTYKLEKQLLQQTNEILKIHEKNSLLEHKILEMEGKHKEELDTLKEEKENLQGLVTRQTYIIQELEKQLNRATTNNSVLQKQQLELMDTVHNLVNLCTKEGVLLKGGKREEEKPFRDCADVYQAGFNKSGIYTIYINNMPEPKKVFCNMDVNGGGWTVIQHREDGSLDFQRGWKEYKMGFGNPSGEYWLGNEFIFAITSQRQYMLRIELMDWEGNRAYSQYDRFHIGNEKQNYRLYLKGHTGTAGKQSSLILHGADFSTKDADNDNCMCKCALMLTGGWWFDACGPSNLNGMFYTAGQNHGKLNGIKWHYFKGPSYSLRSTTMMIRPLDF
notes: Angiopoietin-1, obtained from Regeneron Inc
For the molecule B1, the “effect on thrombin stimulated endothelial cell permeability increase” value in assay [1] (0.1 μg/ml, pre-treated 30 min) is recorded as “inhibiting thrombin stimulated endothelial cell permeability increases”; in assay [1] (0.1 μg/ml, pre-treated 30 min, listed as Angiopoietin-1), “can inhibit the thrombin-induced increase of endothelial cell permeability”. In the assay on protein kinase Cζ [2] (0.1 μg/ml for 30 minutes), the “effect on thrombin stimulated protein kinase Cζ relocalisation to the membrane” value is recorded as “dramatically decreased; also recorded: blocking thrombin stimulated protein kinase Cζ relocalisation”. Moreover, in the assay with protein kinase Cζ [3] (0.1 μg/ml for 30 minutes), the “effect on thrombin stimulated protein kinase Cζ phosphorylation (Thr410)” value is “inhibited thrombin stimulated protein kinase Cζ phosphorylation; also recorded: blocking thrombin stimulated protein kinase Cζ phoshorylation”.
